System: murine melanoma named B16
Assay: Inhibition of melanin biosynthesis in secondary cultures of murine melanoma B16, 72 hours of exposure
Format: cell-based
Method: In order to evaluate the inhibition of melanin biosynthesis by the present mixture, an in vitro experimental model was used which consists of secondary cultures of a murine melanoma named B16. This strain is composed of cells with fibroblastoid morphology which produce melanin (Source: European Collection of Cell Cultures, ECACC).
For the tests, powders of the active ingredients were dissolved in ethanol and propylene glycol (1:1) at 10% (w/w) followed by dilution in culture medium DMEM high glucose+10% FBS supplemented with antibiotics (Penicillin 2000 IU/ml, Streptomycin 1000 IU/ml, Gentamicin 10 mg/ml) to final concentrations of: • A) 4-(1-phenylethyl)-1,3-benzenediol: 10 μg/ml; • B) Acetylglucosamine: 25 μg/ml, 50 μg/ml, 75 μg/ml; • C) Ethyl linoleate: 50 μg/ml; • D) 4-(1-phenylethyl)-1,3-benzenediol at concentration of 10 μg/ml and acetylglucosamine at concentration of 75 μg/ml; • E) 4-(1-phenylethyl)-1,3-benzenediol at a concentration of 10 μg/ml, acetylglucosamine at a concentration of 75 μg/ml, and ethyl linoleate at a concentration of 75 μg/ml. • F) hydroquinone at a concentration of 5 μg/ml (non-cytotoxic concentration)
At passage 30 the afore said cells were seeded on 6-well plates for 24 hours at a concentration of 80,000 cells per well. Then, fresh culture medium containing the afore said samples was added. Untreated cells were used as a negative control, whereas cells treated with hydroquinone at a non-cytotoxic concentration of 5 μg/ml were used as a positive control, as indicated above at point F).
Each sample was tested in duplicate.
After 72 hours of exposure, melanin and intracellular proteins were dosed.
Cells were washed once with phosphate buffered saline (PBS) and then lysed with NaOH 0.1N. The lysate was heated at 60° C. for 1 hour to allow melanin to be solubilized.
In order to evaluate the amount of melanin in the cell lysate, a spectrophotometric reading was taken at a wavelength of 405 nm with the use of a colorimeter (Tecan Sunrise Remote Model) equipped with a plate reader.
A standard curve for melanin titrated from 15 to 500 μg/ml was prepared.
The protein dosage was carried out according to the Bradford's method (Bradford M., […]). […]
The reading was taken at 595 nm with a colorimeter (Tecan, Sunrise) equipped with a plate reader.
In order to quantify protein and melanin contents, a standard calibration curve for albumin and melanin was constructed, and their concentrations in the samples were calculated by using the curve fit formula and the corresponding absorbances.
Then, averages of individual data were calculated and, for each sample, the percentage reduction of melanin was calculated compared to the negative control: […]

Structure (SMILES): CC(c1ccccc1)c1ccc(O)cc1O (stereo not shown) [4-(1-phenylethyl)-1,3-benzenediol]
- percentage reduction in melanin biosynthesis (10 μg/ml, B16 cells, 72 h): about 50%

Structure (SMILES): CC(=O)N[C@@H]1[C@@H](O)[C@H](O)[C@@H](CO)O[C@@H]1O [acetylglucosamine]
- average reduction in melanin biosynthesis (acetylglucosamine alone, average over 25 μg/ml, 50 μg/ml and 75 μg/ml, B16 cells, 72 h): 8%

Structure (SMILES): CCCCC/C=C\C/C=C\CCCCCCCC(=O)OCC [ethyl linoleate]
- ability to inhibit melanin synthesis when used individually (ethyl linoleate alone (50 μg/ml), compared with the mixture containing it): significantly lower than that of the present mixture

Structure (SMILES): Oc1ccc(O)cc1 [hydroquinone]
- inhibition at 5 µg/mL (Mus musculus, hydroquinone at non-cytotoxic concentration (5 μg/ml), positive control, B16 cells, 72 h, read-out: ability to inhibit melanin biosynthesis): ~40%

From US20150110725A1, “MIXTURE FOR THE INHIBITION OF MELANIN BIOSYNTHESIS” (GENERAL TOPICS S.R.L., priority 2012, published 2015)
